Data as given in PMC5146660, “Functional and structural characterization of a novel putative cysteine protease cell wall-modifying multi-domain enzyme selected from a microbial metagenome” (Scientific Reports, 2016).

Target: T1, PCP (putative cysteine protease)
T1 construct: domains 1-48, 49-185 (CHAP, Cys100/His161), 186-247 (PGBD), 248-319 (SH3); monomer; printed peptide 178PVTDALKR185; primers encode start (M)LGQISTA and end KYARLVE
Experiment: tryptophan fluorescence quenching, double-logarithm regression
Assay type: binding, uncultured bacterium (Capra hircus rumen metagenome)
Settings: 50 mM NaH2PO4, 300 mM NaCl, 200 mM imidazole, pH 8.5, 25 °C; protein 5.28 μM; excitation 295 nm; read-out: Kb (converted)

## CC1(C)S[C@@H]2[C@H](NC(=O)[C@H](N)c3ccccc3)C(=O)N2[C@H]1C(=O)O [ampicillin]
  Kd: 5.56 µM
